This is an account of results in US12570612B2, “Substituted nitrogen heterocyclic compound and anesthetic effect thereof” (priority 2019, dated 2026).

Molecules are shown by their SMILES. Bounds are passed on as bounds.

One data set concerns H295R cell line. As to the kind of experiment: Adrenocortical function in vitro test: secretion of cortisol and corticosterone, Group B compounds. In kind it is cell-based. To be noted: H295R cells.
Turning to `CCOC(=O)c1c(Br)nnn1[C@H](C)c1ccccc1` [Compound B99], the “Corticosterone as an indicator to determine the presence of inhibition” value (“Corticosterone as an indicator … of inhibition” below) is 0 and the “Cortisol as an indicator to determine the presence of inhibition” value (“Cortisol as an indicator … of inhibition” for short) worked out at 0.

As to `CCSC(=O)c1c(Br)nnn1[C@H](C)c1ccccc1` [Compound B120], the “Corticosterone as an indicator … of inhibition” value is given as 0 and the “Cortisol as an indicator … of inhibition” value is recorded as 0.

On to `COC(=O)C1=C(OC(=O)c2c(F)nnn2[C@H](C)c2ccccc2)CCC1` [Compound B36], for which the “Corticosterone as an indicator … of inhibition” value turned out to be 0 and the “Cortisol as an indicator … of inhibition” value is listed as 0.

Consider `C[C@H](c1ccccc1)n1nnc(Cl)c1C(=O)OC1CCC1` [Compound B70], for which the “Corticosterone as an indicator … of inhibition” value turned out to be 0 and the “Cortisol as an indicator … of inhibition” value amounted to 0.

On to `C[C@H](c1ccccc1)n1nnc(I)c1C(=O)OC1CCC1` [Compound B132], for which the “Corticosterone as an indicator … of inhibition” value came out at 0 and the “Cortisol as an indicator … of inhibition” value stood at 0.

For the compound `C=CCOC(=O)c1cnnn1[C@H](C)c1ccccc1` [Compound B10], the “Corticosterone as an indicator … of inhibition” value is recorded as 0 and the “Cortisol as an indicator … of inhibition” value worked out at 0.

For the compound `CC(C)OC(=O)c1cnnn1[C@H](C)c1ccccc1` [Compound B17], the “Corticosterone as an indicator … of inhibition” value came out at 0 and the “Cortisol as an indicator … of inhibition” value was 0.

Turning to `CC=CC1(OC(=O)c2cnnn2C(C)c2ccccc2)COC1` (mixture of isomers) [Compound B21], the “Corticosterone as an indicator … of inhibition” value was 0 and the “Cortisol as an indicator … of inhibition” value was 0.

The same data set, now with this note: H295R cells, 0.1-10000 nM, HPLC-MS/MS; read-out: EC50 (Corticosterone).
As to `CCOC(=O)c1c(Br)nnn1[C@H](C)c1ccccc1` [Compound B99], the EC50 is greater than 3000 nM.

With `C[C@H](c1ccccc1)n1nnc(Cl)c1C(=O)OC1CCC1` [Compound B70], the EC50 was greater than 1000 nM.

In the case of `CC=CC1(OC(=O)c2cnnn2C(C)c2ccccc2)COC1` (mixture of isomers) [Compound B21], the EC50 was greater than 100 nM.

The same data set, now with this note: H295R cells, 0.1-10000 nM, HPLC-MS/MS; read-out: EC50 (Cortisol).
For the compound `CCOC(=O)c1c(Br)nnn1[C@H](C)c1ccccc1` [Compound B99], the EC50 is greater than 3000 nM.

For `C[C@H](c1ccccc1)n1nnc(Cl)c1C(=O)OC1CCC1` [Compound B70], the EC50 was greater than 1000 nM.

Regarding `CC=CC1(OC(=O)c2cnnn2C(C)c2ccccc2)COC1` (mixture of isomers) [Compound B21], the EC50 is greater than 100 nM.

The same data set, now with this note: Homo sapiens, NCI-H295R, H295R cells, 0.1-10000 nM, HPLC-MS/MS; read-out: EC50 (Corticosterone).
As to `CCSC(=O)c1c(Br)nnn1[C@H](C)c1ccccc1` [Compound B120], the EC50 was greater than 1000 nM.

As to `COC(=O)C1=C(OC(=O)c2c(F)nnn2[C@H](C)c2ccccc2)CCC1` [Compound B36], the half-maximal effective concentration (EC50) is greater than 1000 nM.

As to `C[C@H](c1ccccc1)n1nnc(I)c1C(=O)OC1CCC1` [Compound B132], the EC50 is greater than 1000 nM.

Consider `C=CCOC(=O)c1cnnn1[C@H](C)c1ccccc1` [Compound B10], for which the EC50 was greater than 100 nM.

In the case of `CC(C)OC(=O)c1cnnn1[C@H](C)c1ccccc1` [Compound B17], the EC50 is greater than 1000 nM.

The same data set, now with this note: Homo sapiens, NCI-H295R, H295R cells, 0.1-10000 nM, HPLC-MS/MS; read-out: EC50 (Cortisol).
`CCSC(=O)c1c(Br)nnn1[C@H](C)c1ccccc1` [Compound B120]: the EC50 was greater than 1000 nM.

With `COC(=O)C1=C(OC(=O)c2c(F)nnn2[C@H](C)c2ccccc2)CCC1` [Compound B36], the EC50 is greater than 1000 nM.

For `C[C@H](c1ccccc1)n1nnc(I)c1C(=O)OC1CCC1` [Compound B132], the EC50 was greater than 1000 nM.

As for `C=CCOC(=O)c1cnnn1[C@H](C)c1ccccc1` [Compound B10], the EC50 was greater than 100 nM.

For `CC(C)OC(=O)c1cnnn1[C@H](C)c1ccccc1` [Compound B17], the EC50 was greater than 1000 nM.

The next data set relates to Sprague-Dawley rats. Briefly: animal or person. Particulars: LORR in rats, tail vein; brackets = 95% confidence limit. How it is done:
Adult male Sprague-Dawley rats (250-300 g) were selected for the experiment. […] The anesthesia effects of the compounds were assessed in rats using a LORR assay and a period >30 s was considered as an indicator of general anesthesia.
Regarding `CCOC(=O)c1c(Br)nnn1[C@H](C)c1ccccc1` [Compound B99], the 50% effective dose (ED50) entry was “A (A indicates that the measured ED50 is in the range of 0.04-0.50 mg/kg (including 0.04 and 0.50 mg/kg))”.

As to `C[C@H](c1ccccc1)n1nnc(Cl)c1C(=O)OC1CCC1` [Compound B70], the ED50 result was “D (D indicates that the measured ED50 is in the range of 2.00-10.00 mg/kg (excluding 2.00 mg/kg, including 10.00 mg/kg))”.

Take `CC=CC1(OC(=O)c2cnnn2C(C)c2ccccc2)COC1` (mixture of isomers) [Compound B21]: the median effective dose (ED50) entry is “B (B indicates that the measured ED50 is in the range of 0.50-1.00 mg/kg (excluding 0.50 mg/kg, including 1.00 mg/kg))”.

The same data set, now with this note: Rattus norvegicus, LORR in rats, tail vein; brackets = 95% confidence limit.
On to `CCSC(=O)c1c(Br)nnn1[C@H](C)c1ccccc1` [Compound B120], for which the ED50 is 0.5 to 1 mg/kg.

For the compound `COC(=O)C1=C(OC(=O)c2c(F)nnn2[C@H](C)c2ccccc2)CCC1` [Compound B36], the 50% effective dose (ED50) is 0.5 to 1 mg/kg.

For the compound `C[C@H](c1ccccc1)n1nnc(I)c1C(=O)OC1CCC1` [Compound B132], the ED50 is 0.5 to 1 mg/kg.

Consider `C=CCOC(=O)c1cnnn1[C@H](C)c1ccccc1` [Compound B10], for which the ED50 was in the range of 0.5 to 1 mg/kg.

For `CC(C)OC(=O)c1cnnn1[C@H](C)c1ccccc1` [Compound B17], the ED50 fell in the range of 0.04 to 0.5 mg/kg.

The same data set, now with this note: rats.
Compound `CCOC(=O)c1c(Br)nnn1[C@H](C)c1ccccc1` [Compound B99] displayed an Approximate therapeutic index greater than 16 and a Minimal lethal dose greater than 8 mg/kg.

On to `CCSC(=O)c1c(Br)nnn1[C@H](C)c1ccccc1` [Compound B120], for which the Approximate therapeutic index is recorded as greater than 21 and the Minimal lethal dose is on record as greater than 15 mg/kg.

Turning to `COC(=O)C1=C(OC(=O)c2c(F)nnn2[C@H](C)c2ccccc2)CCC1` [Compound B36], the Approximate therapeutic index is reported as greater than 7 and the Minimal lethal dose was greater than 5 mg/kg.

For the compound `C[C@H](c1ccccc1)n1nnc(Cl)c1C(=O)OC1CCC1` [Compound B70], the Approximate therapeutic index is greater than 2 and the Minimal lethal dose is greater than 15 mg/kg.

As to `C[C@H](c1ccccc1)n1nnc(I)c1C(=O)OC1CCC1` [Compound B132], the Approximate therapeutic index is greater than 16 and the Minimal lethal dose is on record as greater than 12 mg/kg.

On to `C=CCOC(=O)c1cnnn1[C@H](C)c1ccccc1` [Compound B10], for which the Approximate therapeutic index is greater than 16 and the Minimal lethal dose is given as greater than 11 mg/kg.

For `CC(C)OC(=O)c1cnnn1[C@H](C)c1ccccc1` [Compound B17], the Approximate therapeutic index is greater than 56 and the Minimal lethal dose is greater than 16 mg/kg.

`CC=CC1(OC(=O)c2cnnn2C(C)c2ccccc2)COC1` (mixture of isomers) [Compound B21]: the Approximate therapeutic index is greater than 11 and the Minimal lethal dose is reported as greater than 8 mg/kg.

As usually defined, the EC50 is the concentration that produces a half-maximal response. As usually defined, the ED50 is the dose at which the effect has come halfway, by size or by number of responders.
